Reference: patent publication EP4722219A1 (Gan & Lee Pharmaceuticals Co., Ltd., priority 2023, dated 2024)

Target: T1, AR protein (Homo sapiens, UniProt P10275, T878A)
T1 construct: host or cells: LNCaP FGC
T1 sequence (P10275 1-920 T878A): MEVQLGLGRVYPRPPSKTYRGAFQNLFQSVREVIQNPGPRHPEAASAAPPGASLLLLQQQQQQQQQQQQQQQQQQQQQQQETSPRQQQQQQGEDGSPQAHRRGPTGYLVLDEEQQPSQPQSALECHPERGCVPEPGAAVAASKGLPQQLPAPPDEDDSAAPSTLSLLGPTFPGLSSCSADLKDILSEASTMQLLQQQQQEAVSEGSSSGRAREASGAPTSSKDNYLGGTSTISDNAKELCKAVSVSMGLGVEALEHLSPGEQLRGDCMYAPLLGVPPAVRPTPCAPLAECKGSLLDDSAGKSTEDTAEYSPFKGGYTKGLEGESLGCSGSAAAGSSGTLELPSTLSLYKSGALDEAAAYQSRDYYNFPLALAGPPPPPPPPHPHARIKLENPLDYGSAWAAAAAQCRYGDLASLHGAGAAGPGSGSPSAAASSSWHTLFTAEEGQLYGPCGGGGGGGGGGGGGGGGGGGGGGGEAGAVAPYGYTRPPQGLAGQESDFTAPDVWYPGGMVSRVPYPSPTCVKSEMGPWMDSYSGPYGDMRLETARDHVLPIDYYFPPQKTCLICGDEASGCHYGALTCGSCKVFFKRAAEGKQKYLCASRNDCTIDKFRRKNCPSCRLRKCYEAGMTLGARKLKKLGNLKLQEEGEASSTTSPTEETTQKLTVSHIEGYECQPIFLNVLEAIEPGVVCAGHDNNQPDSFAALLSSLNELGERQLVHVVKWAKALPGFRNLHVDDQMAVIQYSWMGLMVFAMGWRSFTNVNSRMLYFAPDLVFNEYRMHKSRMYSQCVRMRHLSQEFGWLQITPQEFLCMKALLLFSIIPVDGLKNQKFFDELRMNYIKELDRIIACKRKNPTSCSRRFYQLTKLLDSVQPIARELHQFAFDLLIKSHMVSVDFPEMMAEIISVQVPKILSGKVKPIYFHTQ
Experiment: AR protein degradation in LNCaP cells (Western blot)
Type: cell-based
Conditions: 8 hours; for Degradation of AR protein in LNCaP cells, 10 nM (%) / percent AR protein degradation at a fixed concentration at 0.01 µM: 10 nM; for Degradation of AR protein in LNCaP cells, 100 nM (%) / percent AR protein degradation at a fixed concentration at 0.1 µM: 100 nM
Method in brief: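 LNCaP cells exposed to compound or solvent control for 8 h, lysed in RIPA, protein normalized by BCA. AR detected by SDS-PAGE/Western blot with infrared imaging; band grayscale normalized to GAPDH to calculate AR degradation rate.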

Compound	Degradation of AR protein in LNCaP cells, 10 nM (%)	Degradation of AR protein in LNCaP cells, 100 nM (%)	percent AR protein degradation at a fixed concentration at 0.01 µM [%]	percent AR protein degradation at a fixed concentration at 0.1 µM [%]
COc1cc(O[C@H]2CC[C@H](NC(=O)c3ccc(N4CCC(N5CCC6(CC5)COc5cc7c(cc56)n(C)c(=O)n7C5CCC(=O)NC5=O)CC4)nn3)CC2)ccc1C#N (stereo partly shown) [A-P-18, N-((1r,4r)-4-(4-cyano-3-methoxyphenoxy)cyclohexyl)-6-(4-(3-(2,6-dioxopyridyl-3-yl)-1-methyl-2-oxo-2,3-dihydro-1H,6H-spiro[benzofuro[5,6-d]imidazole-7,4'-piperidin]-1'-yl)piperidin-1-yl)pyridazine-3-carboxamide]			43	11
COc1cc(O[C@H]2C(C)(C)[C@H](NC(=O)c3ccc(N4CCC5(CC4)CC(N4CCC6(CC4)COc4cc7c(cc46)n(C)c(=O)n7C4CCC(=O)NC4=O)C5)nn3)C2(C)C)ccc1C#N (relative stereo) [A-P-14, N-((1r,3r)-3-(4-cyano-3-methoxyphenoxy)-2,2,4,4-tetramethylcyclobutyl)-6-(2-(3-(2,6-dioxopiperidin-3-yl)-1-methyl-2-oxo-2,3-dihydro-1H,6H-spiro[benzofuro[5,6-d]imidazole-7,4'-piperidin]-1'-yl)-7-azaspiro[3.5]nonan-7-yl)pyridazine-3-carboxamide]	36	32		
COc1cc(O[C@H]2CC[C@H](NC(=O)c3ccc(N4CCC(CN5CCC6(CC5)COc5cc7c(cc56)n(C)c(=O)n7C5CCC(=O)NC5=O)CC4)nn3)CC2)ccc1C#N (relative stereo) [A-P-17]	1	-18		
COc1cc(O[C@H]2C(C)(C)[C@H](NC(=O)c3ccc(N4CCC(CN5CCC6(CC5)COc5c6ccc(C(=O)N[C@H]6CCC(=O)NC6=O)c5F)CC4)cc3)C2(C)C)ccc1C#N [A-P-83]	41	65		
COc1cc(O[C@H]2C(C)(C)[C@H](NC(=O)c3ccc(N4CCC(N5CC6(CCC7(CC6)COc6c7ccc7c6CN(C6CCC(=O)NC6=O)C7=O)C5)CC4)cc3)C2(C)C)ccc1C#N (stereo partly shown) [A-P-2]			-42	43
C[C@H]1CC2(CCN(c3ccc(C(=O)N4CCC(CN5CCN6c7ccc(C(=O)N[C@H]8CCC(=O)NC8=O)cc7OC[C@H]6C5)CC4)cc3)CC2)CN1c1ccc(C#N)c(Cl)c1 [A-P-68]	51	84		
N#Cc1ccc(O[C@H]2CC[C@H](NC(=O)c3ccc(N4CCC(N5CCC6(CC5)CCC5(CC6)COc6c5ccc5c6CN(C6CCC(=O)NC6=O)C5=O)CC4)nn3)CC2)cc1Cl (relative stereo) [A-P-7, N-((1r,4r)-4-(3-chloro-4-cyanophenoxy)cyclohexy 1)-6-(4-(7-(2,6-dioxopiperidin-3-yl)-6-oxo-7,8-dihydro-2H,6H-dipyridyl[2,3-e]isoindole-3,1'-cyclohexane-4',4'"-piperidin]-1"-yl)pyridazine-3-carboxamide]	85	75		
COc1cc(O[C@H]2C(C)(C)[C@H](NC(=O)c3ccc(N4CCC(C)(CN5CCC6(CC5)COc5cc7c(cc56)n(C)c(=O)n7C5CCC(=O)NC5=O)CC4)cc3)C2(C)C)ccc1C#N (relative stereo) [A-P-16]	49	29		
COc1cc(O[C@H]2C(C)(C)[C@H](NC(=O)c3ccc(N4CCC(F)(CN5CCC6(CC5)COc5cc7c(cc56)n(C)c(=O)n7C5CCC(=O)NC5=O)CC4)cc3)C2(C)C)ccc1C#N (stereo partly shown) [A-P-13]			32	35

The next lines start with results.

Degradation of AR protein in LNCaP cells, 10 nM (%)	Degradation of AR protein in LNCaP cells, 100 nM (%)	Compound	percent AR protein degradation at a fixed concentration at 0.01 µM [%]	percent AR protein degradation at a fixed concentration at 0.1 µM [%]
45	63	COc1cc(O[C@H]2C(C)(C)[C@H](NC(=O)c3ccc(N4CCC(C)(CN5CCC6(CCc7cc(C(=O)N[C@H]8CCC(=O)NC8=O)c(F)cc7O6)CC5)CC4)nn3)C2(C)C)ccc1C#N [A-P-48, 1'-((1-(6-(((1R,3R)-3-(4-cyano-3-methoxyphenoxy)-2,2,4,4-tetramethylcyclobutyl)carbamoyl)pyridazin-3-yl)-4-methylpiperidin-4-yl)methyl)-N-((S)-2,6-dioxopiperidin-3-yl)-7-fluorospiro[chroman-2,4'-piperidin]-6-carboxamide]		
43	62	COc1cc(O[C@H]2C(C)(C)[C@H](NC(=O)c3ccc(N4CCC(F)(CN5CC6(CCC7(CC6)COc6c7ccc7c6CN(C6CCC(=O)NC6=O)C7=O)C5)CC4)cc3)C2(C)C)ccc1C#N (relative stereo) [A-P-5]		
52	70	COc1cc(O[C@H]2C(C)(C)[C@H](NC(=O)c3ccc(N4CCC(CN5CCC6(CCc7cc(C(=O)N[C@H]8CCC(=O)NC8=O)c(F)cc7O6)CC5)(OC)CC4)cc3)C2(C)C)ccc1C#N [A-P-36]		
10	63	COc1cc(O[C@H]2C(C)(C)[C@H](NC(=O)c3ccc(N4CCC5(CC4)CC(N4CCC6(CCc7cc(C(=O)N[C@H]8CCC(=O)NC8=O)c(F)cc7O6)CC4)C5)cc3)C2(C)C)ccc1C#N [A-P-37, 1'-(7-(4-(((1R,3R)-3-(4-cyano-3-methoxyphenoxy)-2,2,4,4-tetramethylcyclobutyl)carbamoyl)phenyl)-7-azaspiro[3.5]nonan-2-yl)-N-((S)-2,6-dioxopiperidin-3-yl)-7-fluorospiro[chroman-2,4'-piperidin]-6-carboxamide]		
26	46	COc1cc(O[C@H]2C(C)(C)[C@H](NC(=O)c3ccc(N4CCC(CN5CCC6(CCc7cc(F)c(C(=O)N[C@H]8CCC(=O)NC8=O)cc7O6)CC5)(OC)CC4)cc3)C2(C)C)ccc1C#N [A-P-40]		
12	46	N-(1r,4r)-4-(3-chloro-4-cyanophenoxy)cyclohexy 1)-6-(4-(7-(2,6-dioxopiperidin-3-yl))-6-oxo-7,8-dihydro-2H,6H-dipyrido[2,3-e]isoindole-3,1'-cyclohexane-4',4‴-piperidin]-1"-yl)pyridazine-3-carboxamide [A-P-32]		
-2	0	COc1cc(O[C@H]2C(C)(C)[C@H](NC(=O)c3ccc(N4CCC(C)(CN5CCC6(CCc7cc(F)c(C(=O)N[C@H]8CCC(=O)NC8=O)cc7O6)CC5)CC4)cc3)C2(C)C)ccc1C#N [A-P-38, 1-(1-(4-((1R,3R)-3-((4-cyano-3-methoxyphenoxy)-2,2,4,4-tetramethylcyclobutyl)carbamoyl)phenyl)-4-methylpiperidin-4-methyl)-N-((S)-2,6-dioxopiperidin-3-yl)-6-fluorospiro[chroman-2,4'-piperidin]-7-carboxamide]		
72	85	COc1cc(O[C@H]2C(C)(C)[C@H](NC(=O)c3ccc(N4CCC(CN5CCC6(CCc7cc(C(=O)N[C@H]8CCC(=O)NC8=O)c(F)cc7O6)CC5)CC4)nn3)C2(C)C)ccc1C#N [A-P-34, 1'-((1-(6-(((1R,3R)-3-(4-cyano-3-methoxyphenoxy)-2,2,4,4-tetramethylcyclobutyl)carbamoyl)pyridazin-3-yl)piperidin-4-yl)methyl)-N-((S)-2,6-dioxopiperidin-3-yl)-7-fluorospiro[chroman-2,4'-piperidin]-6-carboxamide]		
